# Read-outs that look alike come from different tables or passages of the source. Numbered stars: 1 amine (or outer) side, 2 acyl side, 3 side chain; on linkers, the order of the positions; unused ones are H or OH. Square brackets hold non-standard residues; d marks the D form. Side chains are listed from the residue outwards. Peptide text beside a SMILES is read from it. * marks the point of attachment. Dap(Nα-HOOC(CH2)16CO)OH = O=C(O)CCCCCCCCCCCCCCCCC(=O)N[C@@H](CN*)C(=O)O; X4 = C[C@](Cc1ccc(-c2ccccc2)cc1)(N[*:1])C(=O)[*:2]; Bip = N[C@@H](Cc1ccc(-c2ccccc2)cc1)C(=O)O; X2 = O=C(CCc1ccc(I)cc1)N[C@@H](CN*)C(=O)O; αMePhe(2-F) = C[C@](N)(Cc1ccccc1F)C(=O)O; αMeP = C[C@@]1(C(=O)O)CCCN1; AEEA = NCCOCCOCC(=O)O; Aib = CC(C)(N)C(=O)O; CO = O=C([*:1])[*:2]
# Target: T1, hGLP1 receptor (Homo sapiens, UniProt P43220)
# T1 construct: expressed in transfected cells; host or cells: HEK (human embryonic kidney) cells co-expressing hGLP1 receptor and a CRE-Luciferase construct
# Assay: cAMP HTRF agonist assay in HEK cells co-expressing the hGLP1 receptor and CRE-Luciferase construct
# Format: cell-based
# Method: Human embryonic kidney cells (HEK) co-expressing the hGLP1 receptor and CRE-Luciferase construct were used to determine agonist potency in this assay. The cells were thawed briefly at 37° C., transferred to a sterile tube and re-suspended in complete media at 37° C. Cells were centrifuged at 1000 rpm for 5 minutes and cells collected; cells were re-suspended in assay buffer consisting of DPBS (GIBCO) with 500 μM of the phosphodiesterase inhibitor IBMX. […] The optimal cell density was determined to be 1000 cells/well; cells were added to wells in 384-well plates containing appropriate pre-prepared dilutions of compounds (test peptides or reference compound exendin-4), sealed and incubated with CO2 for 30 min. Test peptide solutions were diluted from 10 mM stock solutions; for most peptides an initial run was performed in duplicate from a maximal concentration of 1.0 μM, with 11 concentrations tested for each peptide using serial 1:3 dilution from this maximal concentration. […] The agonist assay was a homogeneous time-resolved fluorescence (HTRF) assay (Cisbio).
# Following incubation of the cells for 30 minutes with test or reference peptides, 5 μL of the cAMP acceptor cAMP-d2, prepared previously as a working solution from frozen stock (1:20 dilution), was added to each well of the assay plate, along with 5 μL of anti-cAMP antibody-cryptate working solution (diluted 1:20 from frozen stock). The wells were incubated for 1 hour at room temperature, and fluorescence was then read at 665 and 615 nm with an Envision reader with TRF laser. Data were saved and analyzed using Prism software (GraphPad). Concentration-response analysis was performed using 4-parameter logistic fits of the resulting data, and EC50 values obtained for each test and reference compound.
# [1] = read-out: cAMP EC50, nM (0.1% albumin), Table 6, C-terminal PK-modifier conjugates, 0.1% albumin
# T1 sequence (P43220 24-463): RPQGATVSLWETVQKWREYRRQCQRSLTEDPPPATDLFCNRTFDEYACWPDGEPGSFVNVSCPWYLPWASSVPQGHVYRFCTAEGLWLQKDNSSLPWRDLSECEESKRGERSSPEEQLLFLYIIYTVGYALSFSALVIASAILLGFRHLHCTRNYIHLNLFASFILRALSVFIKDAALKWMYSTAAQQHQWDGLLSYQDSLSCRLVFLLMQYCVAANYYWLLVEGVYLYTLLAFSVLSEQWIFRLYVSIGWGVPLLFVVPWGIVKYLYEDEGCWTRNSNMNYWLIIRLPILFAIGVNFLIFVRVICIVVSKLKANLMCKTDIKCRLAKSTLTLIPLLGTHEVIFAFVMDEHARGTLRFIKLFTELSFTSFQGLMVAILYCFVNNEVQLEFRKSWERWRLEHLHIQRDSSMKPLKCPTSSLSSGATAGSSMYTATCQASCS
Compound,"EC50 (Table 6, cell annotated (0% albumin), read-out: cAMP EC50) [nM]",EC50 [1] [nM]
"C[C@@H](O)[C@H](NC(=O)CNC(=O)[C@H](CCC(=O)O)NC(=O)[C@]1(C)CCCN1C(=O)[C@@H](N)Cc1c[nH]cn1)C(=O)N[C@@](C)(Cc1ccccc1F)C(=O)N[C@H](C(=O)N[C@@H](CO)C(=O)N[C@@H](CC(=O)O)C(=O)N[C@@H](Cc1ccc(-c2ccccc2)cc1)C(=O)N[C@](C)(Cc1ccc(-c2ccccc2)cc1)C(N)=O)[C@@H](C)O [4-73-i2, H2N-His-α-MePro-Glu-Gly-Thr-α-MePhe(2F)-Thr-Ser-Asp-Bip-α-MeBip-C(O)NH2] (H-H[αMeP]EGT[αMePhe(2-F)]TSD[Bip][X4]-NH2)",0.2,–
"C[C@@H](O)[C@H](NC(=O)CNC(=O)[C@H](CCC(=O)O)NC(=O)C(C)(C)NC(=O)[C@@H](N)Cc1c[nH]cn1)C(=O)N[C@@](C)(Cc1ccccc1F)C(=O)N[C@H](C(=O)N[C@@H](CO)C(=O)N[C@@H](CC(=O)O)C(=O)N[C@@H](Cc1ccc(-c2ccccc2)cc1)C(=O)N[C@H](Cc1ccc(OC(=O)NCCOCCOCC(=O)NCCOCCOCC(N)=O)cc1)C(N)=O)[C@@H](C)O [(D)-4-42, H2N-His-Aib-Glu-Gly-Thr-α-MePhe(2-F)-Thr-Ser-Asp-Bip-D-Tyr(O-R4)-C(O)NH2] (H-H[Aib]EGT[αMePhe(2-F)]TSD[Bip][dY]([CO-AEEA-AEEA-NH2])-NH2)",–,791
"C[C@@H](O)[C@H](NC(=O)CNC(=O)[C@H](CCC(=O)O)NC(=O)C(C)(C)NC(=O)[C@@H](N)Cc1c[nH]cn1)C(=O)N[C@@](C)(Cc1ccccc1F)C(=O)N[C@H](C(=O)N[C@@H](CO)C(=O)N[C@@H](CC(=O)O)C(=O)N[C@@H](Cc1ccc(-c2ccccc2)cc1)C(=O)N[C@H](Cc1ccc(OC(=O)NCCOCCOCC(=O)NCCOCCOCC(=O)NC[C@H](NC(=O)CCCCCCCCCCCCCCCCC(=O)O)C(=O)O)cc1)C(N)=O)[C@@H](C)O [(D)-4-43, H2N-His-Aib-Glu-Gly-Thr-α-MePhe(2-F)-Thr-Ser-Asp-Bip-D-Tyr(O-R5)-C(O)NH2] (H-H[Aib]EGT[αMePhe(2-F)]TSD[Bip][dY]([CO-AEEA-AEEA-Dap(Nα-HOOC(CH2)16CO)OH])-NH2)",–,693
"C[C@@H](O)[C@H](NC(=O)CNC(=O)[C@H](CCC(=O)O)NC(=O)C(C)(C)NC(=O)[C@@H](N)Cc1c[nH]cn1)C(=O)N[C@@](C)(Cc1ccccc1F)C(=O)N[C@H](C(=O)N[C@@H](CO)C(=O)N[C@@H](CC(=O)O)C(=O)N[C@@H](Cc1ccc(-c2ccccc2)cc1)C(=O)N[C@H](Cc1ccc(OC(=O)NCCOCCOCC(=O)NCCOCCOCC(=O)NCCOCCOCC(=O)NC[C@H](NC(=O)CCc2ccc(I)cc2)C(=O)O)cc1)C(N)=O)[C@@H](C)O [(D)-4-44, H2N-His-Aib-Glu-Gly-Thr-α-MePhe(2-F)-Thr-Ser-Asp-Bip-D-Tyr(O-R6)-C(O)NH2] (H-H[Aib]EGT[αMePhe(2-F)]TSD[Bip][dY]([CO-AEEA-AEEA-AEEA-X2])-NH2)",–,299
